These results are taken from US20140079778A1, “Pharmaceutical Formulations Including An Amine Compound” (AstraZeneca UK Limited, priority 2011, published 2014).

Where two headings read alike, the source gives them in different places.

Data set [1] in a line: Example 6: NFA of saxagliptin in saxagliptin/Opadry II films with amino acids (HPLC). Type of data set: physicochemical. Particulars: for % NFA (as a % of saxagliptin peak): Saxagliptin/Opadry II films, amino acid 2% w/w in dispersion, sealed vials 60° C. five days, control without amine 2.63.
The conditions of data set [2]: Saxagliptin Hydrochloride/Opadry II films, amino acid 2% w/w in dispersion, 60° C. five days; control without amine 2.73.
Data set [3] can be described thus: Example 4: NFA of saxagliptin in saxagliptin/Opadry II films with amine compounds (HPLC). The data set is classed as physicochemical. Particulars: amine 2% w/w in dispersion, sealed vials 60° C. five days, control without amine 2.63.
The format of data set [4] is physicochemical. Particulars: Saxagliptin Hydrochloride/Opadry II films, amine 2% w/w in dispersion, 60° C. five days; control without amine 2.73.

As for `NCCCC[C@H](N)C(=O)O` [Lysine, lysine], the “% NFA (as a % of saxagliptin peak)” value in data set [1] came out at 2.84%; in data set [2] it was 2.08%.

Turning to `NCCO` [Ethanolamine, ethanolamine], the “% NFA (as a % of saxagliptin peak)” value in data set [3] and in data set [4] was 0% throughout.

On to `N[C@@H](Cc1c[nH]cn1)C(=O)O` [Histidine, histidine], for which the “% NFA (as a % of saxagliptin peak)” value in data set [1] is reported as 1.68%.

As for `NCC(=O)O` [Glycine, glycine], the “% NFA (as a % of saxagliptin peak)” value in data set [1] and in data set [2] was 0% each time. Besides, the “protecting saxagliptin from reaction with formyl species (rank among amino acids)” value in data set [1] (saxagliptin and saxagliptin hydrochloride Opadry II films) is listed as “most potent”.

With `OCCNCCO` [Diethanolamine, diethanolamine], the “% NFA (as a % of saxagliptin peak)” value in data set [3] stood at 3.61%; in data set [4], 0.62%.

Regarding `N=C(N)NCCC[C@H](N)C(=O)O` [Arginine, arginine], the “% NFA (as a % of saxagliptin peak)” value in data set [1] and in data set [2] was 0% throughout. Further, the “extraneous peaks in the chromatogram” value in data set [1] (saxagliptin and saxagliptin hydrochloride Opadry II films, HPLC) is listed as “formation of extraneous unidentified peaks”.
